pEC50: −log10 of the molar value.
biological target: (Homo sapiens, UniProt P43220); experiment: h-GLP-1 activity assay (cAMP HTRF, HEK293 cells with stable expression of human GLP-1); assay type: cell-based; details: relative EC50, 10 nM human GLP-1 set as 100% response, 30 min at 37° C.
Protocol: Human GLP-1 agonizing activity was detected in HEK293 cells with stable expression of human GLP-1 by Cisbio cAMP Gs dynamic kit (Catalog #62AM4PEC) according to manufacturer's protocol. Briefly, cells were collected and resuspended in assay buffer containing 0.1% BSA and 0.5 mM of IBMX at concentration to 2.5×10^5 cells/mL. Two μL 5× compound solution and 8 μL cell suspension were added to each well of low-volume 384 white assay plate. After 30 min incubation at 37° C., 5 μL cAMP-d2 working solution and 5 μL anti-cAMP antibody-cryptate were added to each well, and incubate at room temperature for 1 hr. Series dilution of cAMP was used as standard. Human GLP-1 (7-37) was used as positive control and 10 nM human GLP-1 was set as 100% response. HTRF signals were read at 665 and 615 nm with EnVision plate reader and calculated cAMP concentration by interpolation to the standard curve. The EC50 value of the tested compounds was calculated by fitting the dose response curve using a 4-parameter non-linear regression routine and relative EC50 was presented in Table 29.

(Homo sapiens, UniProt P43220), sequence (P43220 24-463): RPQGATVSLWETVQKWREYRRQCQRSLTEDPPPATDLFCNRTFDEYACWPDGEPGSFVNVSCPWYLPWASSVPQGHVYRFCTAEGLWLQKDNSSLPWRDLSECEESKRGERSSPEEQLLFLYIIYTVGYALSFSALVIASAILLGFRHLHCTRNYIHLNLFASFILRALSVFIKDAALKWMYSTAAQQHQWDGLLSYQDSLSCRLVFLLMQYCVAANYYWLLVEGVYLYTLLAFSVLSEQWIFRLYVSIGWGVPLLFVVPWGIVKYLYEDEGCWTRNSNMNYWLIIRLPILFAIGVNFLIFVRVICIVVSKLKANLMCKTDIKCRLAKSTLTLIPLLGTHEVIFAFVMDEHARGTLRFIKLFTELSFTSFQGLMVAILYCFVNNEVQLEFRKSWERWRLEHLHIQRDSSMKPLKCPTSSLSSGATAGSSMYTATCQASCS

Row | SMILES | pEC50
1 | Cc1cc(-n2nc3c(c2-n2ccn(-c4ccn5c(C)ncc5c4)c2=O)[C@H](C)N(C(=O)c2cn4cc([C@@H]5CCOC(C)(C)C5)ccc4c2C2(c4noc(=O)[nH]4)CC2)CC3)cc(C)c1F (single isomer, unassigned) [Compound 17] | > 7.70
2 | Cc1cc(-n2nc3c(c2-n2ccn(-c4ccc5c(cnn5C)c4F)c2=O)[C@H](C)N(C(=O)c2cn4cc([C@@H]5CCOC(C)(C)C5)ccc4c2Cc2noc(=O)[nH]2)CC3)cc(C)c1F (single isomer, unassigned) [Compound 21] | > 7.70
3 | Cc1cc(-n2nc3c(c2-n2ccn(-c4ccc5c(cnn5C)c4F)c2=O)[C@H](C)N(C(=O)c2cn4cc([C@H]5CCOC(C)(C)C5)ccc4c2Cc2noc(=O)[nH]2)CC3)cc(C)c1F (single isomer, unassigned) [Compound 22] | 7.00 to 7.70
4 | Cc1cc(-c2nn3c(c2-n2ccn(-c4ccc5c(cnn5C)c4F)c2=O)[C@H](C)N(C(=O)c2cc4cc([C@@H]5CCOC(C)(C)C5)ccc4n2C2(c4noc(=O)[nH]4)CC2)CC3)cc(C)c1F (single isomer, unassigned) [Compound 25] | < 7.00
5 | Cc1cc(-c2nn3c(c2-n2ccn(-c4ccc5c(cnn5C)c4F)c2=O)[C@H](C)N(C(=O)c2cc4cc([C@@H]5CCOC(C)(C)C5)ccc4n2C2(c4noc(=O)[nH]4)CC2)CC3)ccc1F (single isomer, unassigned) [Compound 26] | > 7.70
6 | COc1ccc(-c2nn3c(c2-n2ccn(-c4ccc5c(cnn5C)c4F)c2=O)C(C)N(C(=O)c2cc4cc([C@@H]5CCOC(C)(C)C5)ccc4n2C2(c4noc(=O)[nH]4)CC2)CC3)cc1 (single isomer, unassigned) [Compound 28] | 7.00 to 7.70
7 | COCC12CCC(n3ccn(-c4c(-c5ccc(F)cc5)nn5c4[C@H](C)N(C(=O)c4cc6cc([C@@H]7CCOC(C)(C)C7)ccc6n4C4(c6noc(=O)[nH]6)CC4)CC5)c3=O)(CC1)CC2 (single isomer, unassigned) [Compound 29] | 7.00 to 7.70
8 | C[C@@H]1c2c(-n3ccn(-c4ccc5c(cnn5C)c4F)c3=O)c(-c3ccc(F)cc3)nn2CCN1C(=O)c1cc2cc([C@H]3CCOC(C)(C)C3)ccc2n1C1(c2noc(=O)[nH]2)CC1 (single isomer, unassigned) [Compound 32] | < 7.00
9 | C[C@H]1c2c(nn([C@@H](C)c3ccc(F)cc3)c2-n2ccn(-c3ccc4c(cnn4C)c3F)c2=O)CCN1C(=O)c1cc2cc([C@H]3CCOC(C)(C)C3)ccc2n1C1(c2noc(=O)[nH]2)CC1 (single isomer, unassigned) [Compound 39] | < 7.00
10 | C[C@H]1c2c(nn([C@@H](C)c3ccc(F)cc3)c2-n2ccn(-c3ccc4c(cnn4C)c3F)c2=O)CCN1C(=O)c1cc2cc([C@@H]3CCOC(C)(C)C3)ccc2n1C1(c2noc(=O)[nH]2)CC1 (single isomer, unassigned) [Compound 40] | > 7.70
11 | C[C@H](c1ccc(F)cc1)n1nc2c(c1-n1ccn(-c3ccc4c(cnn4C)c3F)c1=O)[C@H](C)N(C(=O)c1cc3cc([C@H]4CCOC(C)(C)C4)ccc3n1C1(c3noc(=O)[nH]3)CC1)CC2 (single isomer, unassigned) [Compound 41] | < 7.00
12 | C[C@H]1c2c(nn(C3CCC(F)(F)CC3)c2-n2ccn(-c3ccc4c(cnn4C)c3F)c2=O)CCN1C(=O)c1cc2cc([C@H]3CCOC(C)(C)C3)ccc2n1C1(c2noc(=O)[nH]2)CC1 (single isomer, unassigned) [Compound 43] | < 7.00
13 | C[C@H]1c2c(nn(C3CCC(F)(F)CC3)c2-n2ccn(-c3ccc4c(cnn4C)c3F)c2=O)CCN1C(=O)c1cc2cc([C@@H]3CCOC(C)(C)C3)ccc2n1C1(c2noc(=O)[nH]2)CC1 (single isomer, unassigned) [Compound 44] | > 7.70
14 | C[C@H]1c2c(-n3ccn(-c4ccc5c(cnn5C)c4F)c3=O)c(-c3ccc(F)c(Cl)c3)nn2CCN1C(=O)c1cc2cc([C@@H]3CCOC(C)(C)C3)ccc2n1C1(c2noc(=O)[nH]2)CC1 (single isomer, unassigned) [Compound 50] | < 7.00
15 | C[C@H]1c2c(-n3ccn(-c4ccc5c(cnn5C)c4F)c3=O)c(-c3cc(Cl)c(F)c(Cl)c3)nn2CCN1C(=O)c1cc2cc([C@@H]3CCOC(C)(C)C3)ccc2n1C1(c2noc(=O)[nH]2)CC1 (single isomer, unassigned) [Compound 52] | < 7.00
16 | COCC12CCC(n3ccn(-c4c(-c5ccc(F)cc5)nn5c4[C@H](C)N(C(=O)c4cc6cc(C7CCOCC7)ccc6n4Cc4noc(=O)[nH]4)CC5)c3=O)(CC1)CC2 (single isomer, unassigned) [Compound 53] | < 7.00
17 | C[C@H]1c2c(nn(C34CC(C3)C4)c2-n2ccn(-c3ccc4c(cnn4C)c3F)c2=O)CCN1C(=O)c1cc2cc([C@@H]3CCOC(C)(C)C3)ccc2n1C1(c2noc(=O)[nH]2)CC1 (single isomer, unassigned) [Compound 61] | 7.00 to 7.70

The remaining lines, values ahead:

Row | pEC50 | SMILES
18 | > 7.70 | C[C@H]1c2c(-n3ccn(-c4ccc5c(cnn5C)c4F)c3=O)c(-c3ccc(F)cc3)nn2CCN1C(=O)c1cn2cc([C@@H]3CCOC(C)(C)C3)ccc2c1C1(c2noc(=O)[nH]2)CC1 (single isomer, unassigned) [Compound 14]
19 | 7.00 to 7.70 | Cc1cc(-n2nc3c(c2-n2ccn(-c4ccn5cncc5c4)c2=O)[C@H](C)N(C(=O)c2cn4cc([C@H]5CCOC(C)(C)C5)ccc4c2C2(c4noc(=O)[nH]4)CC2)CC3)cc(C)c1F (single isomer, unassigned) [Compound 16]
20 | > 7.70 | Cc1cc(-n2nc3c(c2-n2ccn(-c4ccn5c(C)ncc5c4)c2=O)[C@H](C)N(C(=O)c2cn4cc([C@H]5CCOC(C)(C)C5)ccc4c2C2(c4noc(=O)[nH]4)CC2)CC3)cc(C)c1F (single isomer, unassigned) [Compound 18]
21 | 7.00 to 7.70 | Cc1cc(-n2nc3c(c2-n2ccn(-c4ccc5c(cnn5C)c4F)c2=O)[C@H](C)N(C(=O)c2cn4cc([C@H]5CCOC(C)(C)C5)ccc4c2C2(c4noc(=O)[nH]4)CC2)CC3)cc(C)c1F (single isomer, unassigned) [Compound 20]
22 | > 7.70 | Cc1cc(-c2nn3c(c2-n2ccn(-c4ccc5c(cnn5C)c4F)c2=O)[C@@H](C)N(C(=O)c2cc4cc([C@@H]5CCOC(C)(C)C5)ccc4n2C2(c4noc(=O)[nH]4)CC2)CC3)cc(C)c1F (single isomer, unassigned) [Compound 24]
23 | < 7.00 | Cc1cc(-c2nn3c(c2-n2ccn(-c4ccc5c(cnn5C)c4F)c2=O)[C@@H](C)N(C(=O)c2cc4cc([C@@H]5CCOC(C)(C)C5)ccc4n2C2(c4noc(=O)[nH]4)CC2)CC3)ccc1F (single isomer, unassigned) [Compound 27]
24 | < 7.00 | C[C@H]1c2c(-n3ccn(-c4ccc5c(cnn5C)c4F)c3=O)c(-c3ccc(F)cc3)nn2CCN1C(=O)c1cc2cc([C@H]3CCOC(C)(C)C3)ccc2n1C1(c2noc(=O)[nH]2)CC1 (single isomer, unassigned) [Compound 31]
25 | > 7.70 | C[C@H]1c2c(-n3ccn(-c4ccc5c(cnn5C)c4F)c3=O)c(-c3ccc(F)cc3)nn2CCN1C(=O)c1cc2cc([C@@H]3CCOC(C)(C)C3)ccc2n1C1(c2noc(=O)[nH]2)CC1 (single isomer, unassigned) [Compound 33]
26 | < 7.00 | C[C@@H]1c2c(-n3ccn(-c4ccc5c(cnn5C)c4F)c3=O)c(-c3ccc(F)cc3)nn2CCN1C(=O)c1cc2cc([C@@H]3CCOC(C)(C)C3)ccc2n1C1(c2noc(=O)[nH]2)CC1 (single isomer, unassigned) [Compound 34]
27 | > 7.70 | C[C@H](c1ccc(F)cc1)n1nc2c(c1-n1ccn(-c3ccc4c(cnn4C)c3F)c1=O)[C@H](C)N(C(=O)c1cc3cc([C@@H]4CCOC(C)(C)C4)ccc3n1C1(c3noc(=O)[nH]3)CC1)CC2 (single isomer, unassigned) [Compound 38]
28 | < 7.00 | Cc1cc(-n2nc3c(c2-n2ccn(-c4ccc5c(cnn5C)c4F)c2=O)[C@H](C)N(C(=O)c2cc4cc([C@H]5CCOC(C)(C)C5)ccc4n2Cc2cnc(O)s2)CC3)cc(C)c1F (single isomer, unassigned) [Compound 45]
29 | 7.00 to 7.70 | Cc1cc(-n2nc3c(c2-n2ccn(-c4ccc5c(cnn5C)c4F)c2=O)[C@H](C)N(C(=O)c2cc4cc([C@@H]5CCOC(C)(C)C5)ccc4n2Cc2cnc(O)s2)CC3)cc(C)c1F (single isomer, unassigned) [Compound 46]
30 | > 7.70 | C[C@@H]1c2c(-n3ccn(-c4ccc5c(cnn5C)c4F)c3=O)c(-c3ccc(F)c(Cl)c3)nn2CCN1C(=O)c1cc2cc([C@@H]3CCOC(C)(C)C3)ccc2n1C1(c2noc(=O)[nH]2)CC1 (single isomer, unassigned) [Compound 49]
31 | > 7.70 | C[C@@H]1c2c(-n3ccn(-c4ccc5c(cnn5C)c4F)c3=O)c(-c3cc(Cl)c(F)c(Cl)c3)nn2CCN1C(=O)c1cc2cc([C@@H]3CCOC(C)(C)C3)ccc2n1C1(c2noc(=O)[nH]2)CC1 (single isomer, unassigned) [Compound 51]
32 | > 7.70 | C[C@H]1c2c(nn(C34CC(C3)C4)c2-n2ccn(-c3ccc4c(cnn4C)c3F)c2=O)CCN1C(=O)c1cc2cc([C@H]3CCOC(C)(C)C3)ccc2n1C1(c2noc(=O)[nH]2)CC1 (single isomer, unassigned) [Compound 60]
33 | 7.00 to 7.70 | COCC12CCC(n3ccn(-c4c(-c5ccc(F)cc5)nn5c4[C@H](C)N(C(=O)c4cc6cc([C@@H]7CCOC(C)(C)C7)ccc6n4[C@@]4(c6noc(=O)[nH]6)C[C@@H]4C)CC5)c3=O)(CC1)CC2 (single isomer, unassigned) [Compound 62]
34 | < 7.00 | COCC12CCC(n3ccn(-c4c(-c5ccc(F)cc5)nn5c4[C@H](C)N(C(=O)c4cc6cc([C@H]7CCOC(C)(C)C7)ccc6n4[C@@]4(c6noc(=O)[nH]6)C[C@@H]4C)CC5)c3=O)(CC1)CC2 (single isomer, unassigned) [Compound 63]

From patent US12037339B2, “Substituted imidazoles as GLP-1 receptor agonists” (Eccogene Inc., priority 2020, dated 2024)
